Experimental data taken from patent US8802673B2, “Heterocyclic amine derivatives” (Hoffmann-La Roche Inc, priority 2011, dated 2014).

Tests used:
[1] = biological target: mouse TAAR1 (Mus musculus (Mouse), UniProt Q923Y8); assay: Radioligand binding assay on mouse TAAR1; conditions: mouse TAAR1 (first value of the cell), HEK-293 membranes; read-out: Ki (μM) mouse/rat
Method in brief: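 Membranes from HEK293 cells stably expressing mouse TAAR1, Kd of radioligand determined per batch by saturation. Compounds tested 10 pM to 10 μM in duplicate, incubated 1 h at 4 °C, then filtration over PEI-soaked GF/C filters and scintillation counting.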

[2] = biological target: rat TAAR1 (Rattus norvegicus (Rat), UniProt Q923Y9); assay: Radioligand binding assay on rat TAAR1; conditions: rat TAAR1 (second value of the cell), HEK-293 membranes; read-out: Ki (μM) mouse/rat
rat TAAR1, sequence (Q923Y9 whole entry): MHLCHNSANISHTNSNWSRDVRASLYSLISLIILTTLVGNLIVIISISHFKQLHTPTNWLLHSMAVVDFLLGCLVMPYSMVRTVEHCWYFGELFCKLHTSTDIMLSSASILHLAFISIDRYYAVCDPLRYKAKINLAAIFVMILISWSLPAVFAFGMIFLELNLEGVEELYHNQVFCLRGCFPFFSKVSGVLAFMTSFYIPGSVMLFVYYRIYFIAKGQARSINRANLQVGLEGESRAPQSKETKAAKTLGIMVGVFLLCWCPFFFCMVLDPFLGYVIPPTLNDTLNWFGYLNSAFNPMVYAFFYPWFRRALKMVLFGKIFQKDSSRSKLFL
Method in brief: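 Membranes from HEK293 cells stably expressing rat TAAR1 were used, with radioligand Kd determined by saturation for each batch. Compounds (10 pM to 10 μM, in duplicate) were incubated for 1 h at 4 °C. Bound radioactivity was collected by filtration onto PEI-soaked GF/C filters and counted by scintillation.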

mouse TAAR1, sequence (Q923Y8 whole entry): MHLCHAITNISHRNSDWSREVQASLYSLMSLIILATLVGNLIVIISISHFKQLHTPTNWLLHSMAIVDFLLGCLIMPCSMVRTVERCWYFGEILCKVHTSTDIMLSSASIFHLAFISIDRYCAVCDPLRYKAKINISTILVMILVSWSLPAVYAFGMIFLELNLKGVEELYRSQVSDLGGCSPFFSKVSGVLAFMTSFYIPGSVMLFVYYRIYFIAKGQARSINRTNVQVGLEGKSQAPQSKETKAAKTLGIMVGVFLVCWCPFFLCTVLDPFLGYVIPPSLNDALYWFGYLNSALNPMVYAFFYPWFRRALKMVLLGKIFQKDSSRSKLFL

Row | SMILES | Ki [1] [µM] | Ki [2] [µM]
1 | FC(F)(F)COc1cnc(Nc2ccc([C@H]3CNCCO3)cc2)nc1 [Example 136, ((S)-4-Morpholin-2-yl-phenyl)-[5-(2,2,2-trifluoro-ethoxy)-pyrimidin-2-yl]-amine] | 0.0051 | 0.0494
2 | FC(F)(F)COc1cnc(Nc2ccc([C@@H]3CNCCO3)cc2)nc1 [Example 137, ((R)-4-Morpholin-2-yl-phenyl)-[5-(2,2,2-trifluoro-ethoxy)-pyrimidin-2-yl]-amine] | 0.0037 | 0.0026
3 | COCCOc1cnc(Nc2ccc([C@H]3CNCCO3)cc2)nc1 [Example 138] | 0.0641 | 1.36
4 | COCCOc1cnc(Nc2ccc([C@@H]3CNCCO3)cc2)nc1 [Example 139] | 0.0667 | 1.06
5 | COc1ccc(-c2cnc(Nc3ccc([C@H]4CNCCO4)cc3)nc2)cc1OC [Example 141] | 0.0027 | 0.0129
6 | COc1ccc(-c2cnc(Nc3ccc([C@@H]4CNCCO4)cc3)nc2)cc1OC [Example 142] | 0.0027 | 0.0146
7 | Fc1cc([C@@H]2CNCCO2)ccc1Nc1ncc(OCC(F)(F)F)cn1 [Example 144, ((R)-2-Fluoro-4-morpholin-2-yl-phenyl)-[5-(2,2,2-trifluoro-ethoxy)-pyrimidin-2-yl]-amine] | 0.0042 | 0.0049
8 | Fc1cc([C@H]2CNCCO2)ccc1Nc1ncc(OCC(F)(F)F)cn1 [Example 145, ((S)-2-Fluoro-4-morpholin-2-yl-phenyl)-[5-(2,2,2-trifluoro-ethoxy)-pyrimidin-2-yl]-amine] | 0.0034 | 0.0067
9 | c1coc(-c2cnc(Nc3ccc([C@H]4CNCCO4)cc3)nc2)c1 [Example 147, (5-Furan-2-yl-pyrimidin-2-yl)-((S)-4-morpholin-2-yl-phenyl)-amine] | 0.0009 | 0.0197
10 | c1coc(-c2cnc(Nc3ccc([C@@H]4CNCCO4)cc3)nc2)c1 [Example 148, (5-Furan-2-yl-pyrimidin-2-yl)-((R)-4-morpholin-2-yl-phenyl)-amine] | 0.0017 | 0.0083
11 | COCCOc1cnc(Nc2ccc([C@@H]3CNCCO3)cc2F)nc1 [Example 151, ((R)-2-Fluoro-4-morpholin-2-yl-phenyl)-[5-(2-methoxy-ethoxy)-pyrimidin-2-yl]-amine] | 0.048 | 0.0954
12 | COCCOc1cnc(Nc2ccc([C@H]3CNCCO3)cc2F)nc1 [Example 152, ((S)-2-Fluoro-4-morpholin-2-yl-phenyl)-[5-(2-methoxy-ethoxy)-pyrimidin-2-yl]-amine] | 0.0196 | 0.268
13 | FC(F)(F)c1ncc(Nc2ccc([C@H]3CNCCO3)cc2)cn1 [Example 153, ((S)-4-Morpholin-2-yl-phenyl)-(2-trifluoromethyl-pyrimidin-5-yl)-amine] | 0.007 | 0.84
14 | FC(F)(F)c1ncc(Nc2ccc([C@@H]3CNCCO3)cc2)cn1 [Example 154, ((R)-4-Morpholin-2-yl-phenyl)-(2-trifluoromethyl-pyrimidin-5-yl)-amine] | 0.0096 | 0.863
15 | Cc1cnc(Nc2ccc([C@H]3CNCCO3)cc2)cn1 [Example 156, (5-Methyl-pyrazin-2-yl)-((S)-4-morpholin-2-yl-phenyl)-amine] | 0.0093 | 0.833
16 | Cc1cnc(Nc2ccc([C@@H]3CNCCO3)cc2)cn1 [Example 157, (5-Methyl-pyrazin-2-yl)-((R)-4-morpholin-2-yl-phenyl)-amine] | 0.0132 | > 10
17 | CNC(=O)c1cnc(Nc2ccc([C@H]3CNCCO3)cc2)nc1 [Example 158, 2-((S)-4-Morpholin-2-yl-phenylamino)-pyrimidine-5-carboxylic acid methylamide] | 1.02 | 1.85
18 | CNC(=O)c1cnc(Nc2ccc([C@@H]3CNCCO3)cc2)nc1 [Example 159, 2-((R)-4-Morpholin-2-yl-phenylamino)-pyrimidine-5-carboxylic acid methylamide] | 1.34 | 1.76
19 | Cc1ccc(Nc2ccc([C@H]3CNCCO3)cc2)nn1 [Example 160, (6-Methyl-pyridazin-3-yl)-((S)-4-morpholin-2-yl-phenyl)-amine] | 0.0061 | 2.75
20 | c1ccc(Cn2ccc(Nc3ccc([C@H]4CNCCO4)cc3)n2)cc1 [Example 161, (1-Benzyl-1H-pyrazol-3-yl)-((S)-4-morpholin-2-yl-phenyl)-amine] | 0.0016 | 0.223
21 | c1ccc(Cn2ccc(Nc3ccc([C@@H]4CNCCO4)cc3)n2)cc1 [Example 162, (1-Benzyl-1H-pyrazol-3-yl)-((R)-4-morpholin-2-yl-phenyl)-amine] | 0.002 | 0.127

Row | SMILES | Ki [1] [µM] | Ki [2] [µM]
22 | c1ccc(-n2ccc(Nc3ccc([C@H]4CNCCO4)cc3)n2)cc1 [Example 163, ((S)-4-Morpholin-2-yl-phenyl)-(1-phenyl-1H-pyrazol-3-yl)-amine] | 0.0026 | 0.0332
23 | c1ccc(-n2ccc(Nc3ccc([C@@H]4CNCCO4)cc3)n2)cc1 [Example 164, ((R)-4-Morpholin-2-yl-phenyl)-(1-phenyl-1H-pyrazol-3-yl)-amine] | 0.0006 | 0.025
24 | c1cc([C@H]2CNCCO2)ccc1Nc1ccc(C2COC2)cn1 [Example 165, ((S)-4-Morpholin-2-yl-phenyl)-(5-oxetan-3-yl-pyridin-2-yl)-amine] | 0.011 | 0.34
25 | Cc1cc([C@@H]2CNCCO2)ccc1Nc1ncc(C(F)(F)F)cn1 [Example 166, ((R)-2-Methyl-4-morpholin-2-yl-phenyl)-(5-trifluoromethyl-pyrimidin-2-yl)-amine] | 0.0301 | 0.159
26 | Cc1cc([C@H]2CNCCO2)ccc1Nc1ncc(C(F)(F)F)cn1 [Example 167, ((S)-2-Methyl-4-morpholin-2-yl-phenyl)-(5-trifluoromethyl-pyrimidin-2-yl)-amine] | 0.112 | 1.35
27 | FC(F)(F)c1cnc(Nc2ccc([C@@H]3CNCCO3)cc2Cl)nc1 [Example 168, ((R)-2-Chloro-4-morpholin-2-yl-phenyl)-(5-trifluoromethyl-pyrimidin-2-yl)-amine] | 0.0077 | 0.0065
28 | FC(F)(F)c1cnc(Nc2ccc([C@H]3CNCCO3)cc2Cl)nc1 [Example 169, ((S)-2-Chloro-4-morpholin-2-yl-phenyl)-(5-trifluoromethyl-pyrimidin-2-yl)-amine] | 0.0243 | 0.0397
29 | FC(F)(F)COc1ccnc(Nc2ccc([C@@H]3CNCCO3)cc2)n1 [Example 172, ((R)-4-Morpholin-2-yl-phenyl)-[4-(2,2,2-trifluoro-ethoxy)-pyrimidin-2-yl]-amine] | 0.0035 | 0.0162
30 | FC(F)(F)c1ccnc(Nc2ccc([C@@H]3CNCCO3)cc2)n1 [Example 173, (R)—N-(4-(Morpholin-2-yl)phenyl)-4-(trifluoromethyl)pyrimidin-2-amine] | 0.0044 | 0.0625
31 | FC(F)Oc1cnc(Oc2cnc(Nc3ccc([C@@H]4CNCCO4)cc3)nc2)nc1 [Example 174, (R)-5-(5-(Difluoromethoxy)pyrimidin-2-yloxy)-N-(4-(morpholin-2-yl)phenyl)pyrimidin-2-amine] | 0.0088 | 0.0628
32 | FC(F)Oc1cnc(Oc2cnc(Nc3ccc([C@@H]4CNCCO4)cc3Cl)nc2)nc1 [Example 175, (R)—N-(2-Chloro-4-(morpholin-2-yl)phenyl)-5-(5-(difluoromethoxy)pyrimidin-2-yloxy)pyrimidin-2-amine] | 0.006 | 0.0066
33 | c1cnc(Nc2ccc([C@@H]3CNCCO3)cc2)nc1 [Example 176, (R)—N-(4-(Morpholin-2-yl)phenyl)pyrimidin-2-amine] | 0.152 | > 10
34 | c1ccc2nc(Nc3ccc([C@@H]4CNCCO4)cc3)ncc2c1 [Example 177, ((R)-4-Morpholin-2-yl-phenyl)-quinazolin-2-yl-amine] | 0.0028 | 0.0299
35 | Cc1cc(C(F)(F)F)nc(Nc2ccc([C@@H]3CNCCO3)cc2)n1 [Example 178, (4-Methyl-6-trifluoromethyl-pyrimidin-2-yl)-((R)-4-morpholin-2-yl-phenyl)-amine] | 0.0043 | 0.0298
36 | FC(F)Oc1cnc(Nc2ccc([C@@H]3CNCCO3)cc2)nc1 [Example 179, (R)-5-(Difluoromethoxy)-N-(4-(morpholin-2-yl)phenyl)pyrimidin-2-amine] | 0.0047 | 0.0517
37 | COc1cc(Cl)nc(Nc2ccc([C@@H]3CNCCO3)cc2)n1 [Example 180, (4-Chloro-6-methoxy-pyrimidin-2-yl)-((R)-4-morpholin-2-yl-phenyl)-amine] | 0.0058 | 0.033
38 | N#Cc1ccnc(Nc2ccc([C@@H]3CNCCO3)cc2)n1 [Example 181, 2-((R)-4-Morpholin-2-yl-phenylamino)-pyrimidine-4-carbonitrile] | 0.0084 | 0.398
39 | Cc1cc(C)nc(Nc2ccc([C@@H]3CNCCO3)cc2)n1 [Example 182, (4,6-Dimethyl-pyrimidin-2-yl)-((R)-4-morpholin-2-yl-phenyl)-amine] | 0.0144 | 0.447
40 | COc1cc(OC)nc(Nc2ccc([C@@H]3CNCCO3)cc2)n1 [Example 183, (4,6-Dimethoxy-pyrimidin-2-yl)-((R)-4-morpholin-2-yl-phenyl)-amine] | 0.0094 | 0.174
41 | FC(F)(F)c1cnc(Nc2ccc([C@@H]3CNCCO3)cc2)c(Cl)c1 [Example 185, (R)-3-Chloro-N-(4-(morpholin-2-yl)phenyl)-5-(trifluoromethyl)pyridin-2-amine] | 0.0549 | 0.0888
